Test results: patent US20240208997A1, “CYCLIC BENZIMIDAZOLE DERIVATIVES AS CGAS INHIBITORS” (Boehringer Ingelheim International GmbH, priority 2022, published 2024)

Key:
[1] = system: IFN induction in virus-stimulated THP1 cells; experiment: Human cGAS cell assay, virus-stimulated THP1-Dual cells (THP1(vir) IC50); format: cell-based; conditions: THP-1, 18 h, Table 1, baculovirus-stimulated THP1-Dual cells, Lucia luciferase, 18 h, read-out: THP(vir) IC50
Description: 6.2 Method: Human cGAS Cell Assay and cGAMP Stimulated Counter Cell Assay (THP1(vir) IC50 and THP1(cGAMP) IC50)
THP1-Dual™ cells (InvivoGen #thpd-nfis) expressing IRF dependent Lucia luciferase reporter were used as basis for both assays. For the detection of cellular cGAS activity cells were stimulated by a baculovirus (pFastbac-1, Invitrogen, no coding insert) infection that delivers the cGAS enzyme stimulating double-stranded DNA (measurement of THP1(vir) IC50).
Pathway activity was monitored by measuring the Lucia luciferase activity induced by either DNA stimulated cGAS enzyme activity (measurement of THP1(vir) IC50) or by cGAMP directly (measurement of THP1(cGAMP) IC50, counter assay).
Compounds were delivered in 10 mM DMSO solution, serially diluted and transferred to the 384 well assay plate (Greiner #781201) using an Echo acoustic dispenser. Typically, 8 concentrations were used with the highest concentration at 10 μM in the final assay volume followed by ^˜1:5 dilution steps. DMSO concentration was set to 1% in the final assay volume. The 384 well assay plate contained […] (column 1-22), and DMSO in column 23 and 24.
Cells, cultivated according to manufacturer conditions, were harvested by centrifugation at 300 g/10 min and were then resuspended and diluted to 1.66E5 cells/ml in fresh cell culture medium (RPMI 1640 (Gibco #A10491-01), 10% FCS (Gibco #10500), 1× GlutaMax (Gibco #35050-061), 1× Pen/Strep solution (Gibco #15140-122), 100 μg/ml Normocin (InvivoGen #ant-nr), 100 μg/ml Zeocin (InvivoGen #ant-zn), 10 μg/ml Blasticidin S (Life Technologies #A11139-03)). The baculovirus solution was then added 1:200 (have varied according to virus batch) to the cells (measurement of THP1(vir) IC50).
30 μL of the cell/virus-mix were added to each well of the compound plate from column 1-23 via MultiDrop Combi dispenser (5000 cells/well). In column 24, 30 μl/5000 cells/well without virus were added as a low control.
The plates were then incubated for 18 h at 37° C. in a humidified incubator.
Following that, 15 μL of QuantiLuc detection reagent (InvivoGen #rep-qlcg5) were added to each well using a MultiDrop Combi. Measurement was done immediately after the addition using an EnVision reader (US-luminescence read-mode).
(§1) Data Evaluation and Calculation:
For data evaluation and calculation, the measurement of the low control was set as 0% control and the measurement of the high control was set as 100% control. The IC50 values were calculated using the standard 4 parameter logistic regression formula. Calculation: [y=(a−d)/(1+(x/c)^b)+d], a=low value, d=high value; x=conc M; c=IC50 M; b=slope

[2] = system: IFN induction in dsDNA-stimulated human whole blood; experiment: Human whole blood assay (hWB IC50), dsDNA stimulated, IFNα2α production; format: cell-based; conditions: Table 1
Procedure: 6.3 Method: Human Whole Blood Assay (Human WB IC50)
For the detection of cellular cGAS activity human whole blood was stimulated by transfection with double stranded DNA. Pathway activity was monitored by measuring the IFNα2α production.
Compounds were delivered as 10 mM DMSO solution and serially diluted and transferred to the 96-well cell culture plate (Corning #3595), prefilled with 20 μl OptiMEM (Gibco, #11058-021) in each well, using an Echo acoustic dispenser. Typically, 8 concentrations were used with the highest concentration at 10 μM in the final assay volume followed by ^˜1:5 dilution steps. DMSO concentration was set to 0.1% in the final assay volume. The 96-well assay plate contained 10 test compounds, and DMSO in control wells.
Collection of human whole blood from 3 or more healthy donors (male or female, no medication for 7 days except contraceptive and thyroxine) as Na-Citrate blood (e.g. 3.8% in Monovettes from Sarstedt) was conducted in parallel. Whole blood was kept at room temperature for a maximum of 3 hours after collection until use in the assay. 160 μl of the whole blood samples was transferred to each well of the 96-well assay plates filled with compound/OptiMEM. All assay plates were prepared as duplicates with blood from different donors. Blood plates were kept at room temperature for 60 minutes and continuous shaking with 450 rpm, covered with the lid, but not sealed.
20 μl OptiMEM and 9.6:1 Fugene was added to all low control wells.
After covering assay plates with aera seals and the lid, blood plates were kept at room temperature for 30 minutes and continuous shaking with 450 rpm, followed by an overnight incubation of 22 h at 37° C. in the incubator, without shaking.
For the detection of IFNα-2α in human plasma, the biotinylated capture antibody (Antibody set IFNA2, Meso Scale Diagnostics #B21VH-3, including coating and capture antibody) was diluted 1:17.5 in Diluent 100 (Meso Scale Diagnostics #R50AA-4), according to the manufacturer's directions. U-Plex MSD GOLD 96-well Small Spot Strepavidin SECTOR Plates (Meso Scale Diagnostics #L45SA-5) were coated with 25 μl diluted capture antibody. Coated plates were incubated for 60 min at room temperature under continuous shaking at 700 rpm. MSD IFNα-2α plates were washed three times with 150 μl wash buffer (1× HBSS, 0.05% Tween).
After blocking the plates with 100 μl block solution/well (1× HBSS with 0.2% Tween, 2% BSA) for 60 min at room temperature and continuous shaking at 700 rpm, plates were emptied as dry as possible by dumping just before continuing with the human plasma.
Whole Blood assay plates were centrifuged at 1600 rpm for 10 minutes. 25 μl of supernatant was transferred with a pipetting robot from each whole blood plate to the corresponding IFNα-2α plate. Plates were sealed with microplate seals and kept at room temperature again under continuous shaking at 700 rpm for two hours.
Next MSD IFNα-2α plates were washed three times with 150 μl wash buffer (1× HBSS, 0.05% Tween), before adding 25 μl MSD SULFO-TAG IFNα-2α Antibody solution (1:100 diluted in Diluent 3 (Meso Scale Diagnostics #R50AP-2) to each well of the plates.
Afterwards plates were sealed with microplate seals and kept at room temperature again under continuous shaking at 700 rpm for two hours. Finally, MSD IFNα-2α plates were washed three times with 150 μl wash buffer (1× HBSS, 0.05% Tween). 150 μl 2× Read buffer was added to each well and plates were immediately measured with the MSD Sector S600 Reader using the vendor barcode.
as §1
For data evaluation and calculation, % control calculation of each well was based on the mean of high (DNA stimulated control) and mean of low (unstimulated control) controls by using the following formula:
[counts(sample)−counts(low))/(counts(high)−counts(low))]*100
The IC50-values were calculated using the standard 4 parameter logistic regression formula. […]

SMILES | IC50 [1] [nM] | IC50 [2] [nM]
C[C@H]1CN2CC[C@@H]1n1c(nc3cc(Cl)ccc31)O[C@H]1C[C@@H](C(=O)O)N(C1)c1nc(nc3c1oc1cc(F)ccc13)CCCCOCC2=O [Example 1.09] | 4.3 | 2
C[C@H]1CN2CC[C@@H]1n1c(nc3cc(Cl)ccc31)O[C@H]1C[C@@H](C(=O)O)N(C1)c1nc(nc3c1oc1ccccc13)COCCOCC2=O [Example 1.11] | 3.6 | 3
C[C@H]1CN2CC[C@@H]1n1c(nc3ccc(Cl)cc31)O[C@H]1C[C@@H](C(=O)O)N(C1)c1nc(nc3c1oc1ccccc13)C(F)(F)CCCCCC2=O [Example 1.13] | 4.9 | 15
C[C@H]1CN2CC[C@@H]1n1c(nc3ccccc31)O[C@H]1C[C@@H](C(=O)O)N(C1)c1nc(nc3c1oc1ccccc13)CCCCCCC2=O (racemic) [Example 1.24] | 170 | 86
Cc1cccc2c1nc1n2[C@@H]2CCN(C[C@H]2C)C(=O)CCCCCC(F)(F)c2nc(c3oc4ccccc4c3n2)N2C[C@H](C[C@H]2C(=O)O)O1 [Example 1.27] | 180 | 1580
C[C@H]1CN2CC[C@@H]1n1c(nc3cc(Cl)ccc31)O[C@H]1C[C@@H](C(=O)O)N(C1)c1nc(nc3c1oc1ccccc13)C(F)(F)OCCCCC2=O [Example 6.01] | 3.1 | 3
C[C@H]1CN2CC[C@@H]1n1c(nc3ccccc31)O[C@H]1C[C@@H](C(=O)O)N(C1)c1nc(nc3c1oc1ccccc13)CCCC(C)(C)CCC2=O [Example 1.23] | 190 | 143
C[C@H]1CN2CC[C@@H]1n1c(nc3ccccc31)O[C@H]1C[C@@H](C(=O)O)N(C1)c1nc(nc3c1oc1ccccc13)C(F)(F)COCCCCC2=O [Example 3.01] | 0.44 | 1
C[C@H]1CN2CC[C@@H]1n1c(nc3cc(Cl)ccc31)O[C@H]1C[C@@H](C(=O)O)N(C1)c1nc(nc3c1oc1ccccc13)C(F)(F)CCCOCC2=O [Example 1.21] | 1.9 | 1
C[C@H]1CN2CC[C@@H]1n1c(nc3ccccc31)O[C@H]1C[C@@H](C(=O)O)N(C1)c1nc(nc3c1oc1cc(Cl)ccc13)C(F)(F)CCCOCC2=O [Example 1.22] | 1.5 | 4
CC1CCc2nc(c3oc4ccccc4c3n2)N2C[C@H](C[C@H]2C(=O)O)Oc2nc3cc(Cl)ccc3n2[C@H]2CCN(C[C@@H]2C)C(=O)CCO1 (some centres unmarked) [Example 1.20] | 13 | 7
C[C@@H]1CN2CC[C@H]1n1c(nc3cc(Cl)ccc31)O[C@H]1C[C@@H](C(=O)O)N(C1)c1nc(nc3c1oc1ccccc13)CCOCCCC2=O [Example 1.01] | 39 | 87
C[C@H]1CN2CC[C@@H]1n1c(nc3cc(Cl)ccc31)O[C@H]1C[C@@H](C(=O)O)N(C1)c1nc(nc3c1oc1cc(Cl)ccc13)CCOCCCC2=O [Example 1.08] | 2.4 | 17
C[C@H]1CN2CC[C@@H]1n1c(nc3cc(Cl)ccc31)O[C@H]1C[C@@H](C(=O)O)N(C1)c1nc(nc3c1oc1ccccc13)CCOCCCC2=O [Example 1.02] | 2.8 | 5
C[C@H]1CN2CC[C@@H]1n1c(nc3ccccc31)O[C@H]1C[C@@H](C(=O)O)N(C1)c1nc(nc3c1oc1ccccc13)CCOCCOC2=O (mixture of isomers) [Example 12.01] | 240 | 225
O=C(O)[C@@H]1C[C@H]2CN1c1nc(nc3c1oc1ccccc13)OCCCCOC(=O)N1CCC(CC1)n1c(nc3ccccc31)O2 [Example 11.01] | 180 | 138
